{"source": "patent US20230407243A1", "about": "“GENETIC PLATFORM TO INVESTIGATE THE FUNCTIONS OF BACTERIAL DRUG EFFLUX PUMPS” (priority 2022, published 2023)", "type_in_all_cases": "cell-based, Escherichia coli", "key": {"[1]": {"test_system": "EKO-35 (empty pCA24N)", "test": "microbe, parasite or virus in culture", "details": "for MIC: EKO-35 empty pCA24N, 0.1 mM IPTG"}, "[2]": {"test_system": "ΔtolC (empty pCA24N)", "test": "microbe, parasite or virus in culture", "details": "Escherichia coli, ΔtolC empty pCA24N, 0.1 mM IPTG"}, "[3]": {"test_system": "wild-type K-12-Pore", "test": "Checkerboard synergy (FICI), porinated strain", "details": "K-12 Pore", "in_short": "(§1)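 Interaction of PAβN or NMP with antibiotics is scored as FICI = CA/MICA + CB/MICB, from MICs (no growth, OD600) in MHB II checkerboard microdilution following CLSI. Solvent controls accompany every plate.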"}, "[4]": {"test_system": "EKO-35", "in_short": "as §1"}, "[5]": {"test_system": "EKO-35 acrBD408A", "details": "EKO-35 acrBD408A", "in_short": "as §1"}, "[6]": {"test_system": "ΔtolC-Pore", "details": "ΔtolC Pore", "in_short": "as §1"}, "[7]": {"test_system": "ΔtolC", "details": "ΔtolC", "in_short": "as §1"}, "[8]": {"test_system": "wild-type E. coli K-12", "details": "K-12", "in_short": "as §1"}, "[9]": {"test_system": "K-12 (empty pCA24N)", "test": "MIC of strains harboring ASKA plasmids", "details": "Escherichia coli, K-12 empty pCA24N; Chlor + (25 μg/mL chloramphenicol); 0.1 mM IPTG; read-out: MIC"}, "[10]": {"test_system": "EKO-35 strains producing different efflux pumps (EKO-35 araC::X)", "test": "Checkerboard synergy (FICI) of PAβN or NMP with antibiotics", "details": "for Effect / FICI: PAβN + antibiotic; for MICb Alone: antibiotic alone (PAβN checkerboard); for MICb Combined: antibiotic in combination with PAβN", "in_short": "as §1"}, "[11]": {"test_system": "EKO-35 wcaC (pCA24N)", "test": "MIC of strains harboring ASKA plasmids", "details": "EKO-35 wcaC; Chlor + (4 μg/mL); 0.1 mM IPTG"}, "[12]": {"details": "antibiotic alone (PAβN checkerboard)"}, "[13]": {"details": "antibiotic in combination with PAβN"}}, "note": "Where two headings read alike, the source gives them in different places."}
{"smiles": "CO[C@@H]1[C@@H](OC(N)=O)[C@@H](O)[C@H](Oc2ccc3c(O)c(NC(=O)c4ccc(O)c(CC=C(C)C)c4)c(=O)oc3c2C)OC1(C)C", "note": "[novobiocin]", "values": [{"measurement": "MIC", "setting": "[1]; Chlor + (4 μg/mL chloramphenicol)", "value": 3.13, "unit": "µg/mL"}, {"measurement": "MIC", "setting": "[1]; Escherichia coli, Chlor −, read-out: MIC", "value": 3.13, "unit": "µg/mL"}, {"measurement": "fold difference in susceptibility between EKO-35 and ΔtolC", "setting": "[1]; while profiling the ASKA EKO-35 strains", "value": 2, "unit": "fold"}, {"measurement": "MIC", "setting": "[2]; Chlor +", "value": 1.56, "unit": "µg/mL"}, {"measurement": "MIC", "setting": "[2]; Chlor −", "value": 3.13, "unit": "µg/mL"}, {"measurement": "Effect", "setting": "[3]; PAβN + antibiotic", "value": "Additive"}, {"measurement": "FICI", "setting": "[3]; PAβN + antibiotic", "value": 0.508}, {"measurement": "MICb Alone", "setting": "[3]; [12]", "value": 16, "unit": "µg/mL"}, {"measurement": "MICb Combined", "setting": "[3]; [13]", "value": 8, "unit": "µg/mL"}, {"measurement": "Effect", "setting": "[4]; EKO-35, PAβN + antibiotic", "value": "Synergistic"}, {"measurement": "FICI", "setting": "[4]; EKO-35, PAβN + antibiotic", "value": 0.375}, {"measurement": "MICb Alone", "setting": "[4]; EKO-35, antibiotic alone (PAβN checkerboard)", "value": 4, "unit": "µg/mL"}, {"measurement": "MICb Combined", "setting": "[4]; EKO-35, antibiotic in combination with PAβN", "value": 1, "unit": "µg/mL"}, {"measurement": "interaction of PAβN in combination with the labelled antibiotic (FICI)", "setting": "[4]; efflux-deficient strains EKO-35, EKO-35 acrBD408A, ΔtolC", "value": "synergized"}, {"measurement": "Effect", "setting": "[5]; PAβN + antibiotic", "value": "Synergistic"}, {"measurement": "FICI", "setting": "[5]; PAβN + antibiotic", "value": 0.375}, {"measurement": "MICb Alone", "setting": "[5]; [12]", "value": 8, "unit": "µg/mL"}, {"measurement": "MICb Combined", "setting": "[5]; [13]", "value": 2, "unit": "µg/mL"}, {"measurement": "Effect", "setting": "[6]; PAβN + antibiotic", "value": "Additive"}, {"measurement": "FICI", "setting": "[6]; PAβN + antibiotic", "value": 0.740}, {"measurement": "MICb Alone", "setting": "[6]; [12]", "value": 0.25, "unit": "µg/mL"}, {"measurement": "MICb Combined", "setting": "[6]; [13]", "value": 0.06, "unit": "µg/mL"}, {"measurement": "Effect", "setting": "[7]; PAβN + antibiotic", "value": "Synergistic"}, {"measurement": "FICI", "setting": "[7]; PAβN + antibiotic", "value": 0.500}, {"measurement": "MICb Alone", "setting": "[7]; [12]", "value": 2, "unit": "µg/mL"}, {"measurement": "MICb Combined", "setting": "[7]; [13]", "value": 0.5, "unit": "µg/mL"}, {"measurement": "Effect", "setting": "[8]; PAβN + antibiotic", "value": "Synergistic"}, {"measurement": "FICI", "setting": "[8]; PAβN + antibiotic", "value": 0.188}, {"measurement": "MICb Alone", "setting": "[8]; [12]", "value": 128, "unit": "µg/mL"}, {"measurement": "MICb Combined", "setting": "[8]; [13]", "value": 8, "unit": "µg/mL"}, {"measurement": "MIC", "setting": "[9]", "value": 200, "unit": "µg/mL"}, {"measurement": "Effect", "setting": "[10]; EKO-35 acrB", "value": "Synergistic"}, {"measurement": "FICI", "setting": "[10]; EKO-35 acrB", "value": 0.156}, {"measurement": "MICb Alone", "setting": "[10]; EKO-35 acrB", "value": 1024, "unit": "µg/mL"}, {"measurement": "MICb Combined", "setting": "[10]; EKO-35 acrB", "value": 32, "unit": "µg/mL"}, {"measurement": "Effect", "setting": "[10]; EKO-35 acrD", "value": "Synergistic"}, {"measurement": "FICI", "setting": "[10]; EKO-35 acrD", "value": 0.313}, {"measurement": "MICb Alone", "setting": "[10]; EKO-35 acrD", "value": 512, "unit": "µg/mL"}, {"measurement": "MICb Combined", "setting": "[10]; EKO-35 acrD", "value": 32, "unit": "µg/mL"}, {"measurement": "MIC", "setting": "[11]", "value": 1.56, "unit": "µg/mL"}]}
